Source: patent US20250332266A1, “COMPOUNDS FOR THE DEGRADATION OF EGFR KINASE” (BeiGene Switzerland GmbH, priority 2022, published 2025)

How the values were obtained:
[1] = biological target: EGFR Del19/T790M/C797S (H1975-clone #28) (Homo sapiens, UniProt P00533, T790M/C797S, form not given); assay: EGFR degradation, HTRF total-EGFR assay, H1975-clone #28 (DTC); type: cell-based; conditions: H1975-clone #28 Del19/T790M/C797S, 16 h treatment
Text: (§1) H1975-clone #28 (Del19/T790M/C797S, or abbr: DTC), H1975-clone #23 (Del19/C797S, or abbr: DC), H1975-clone #25 (L858R/T790M/C797S, or abbr: LTC) and H1975-clone #8 (L858R/C797S, or abbr: LC). EGFR-Del19/T790M/C797S, EGFR-Del19/C797S, EGFR-L858R/T790M/C797S and EGFR-L858R/C797S were stably expressed in H1975 cell lines by lentivirus-mediated over-expression, respectively. The EGFR over-expressed cells then underwent knockout, in which the EGFR targeting sgRNA was designed to only target the endogenous EGFR copies and preserve the exogenous EGFR copies. Followed by the knockout, the edited H1975 cells were seeded in 96 well plates at the concentration of 1 cell/well, cultured for about 2 weeks to allow single clones formation. The formed clones were screened by DNA sequencing and whole exon sequencing analysis for the desired edition. H1975-clone #28, H1975-clone #23, H1975-clone #25 and H1975-clone #8 were finally confirmed as homozygous Del19/T790M/C797S EGFR, Del19/C797S EGFR, L858R/T790M/C797S EGFR and L858R/C797S EGFR clones, respectively.
(§2) H1975-#25, H1975-#28, H1975-#23 and H1975-#8 cells are treated with compounds diluted in 0.2% DMSO cell culture medium on day 2, incubate for 16 h, 37° C., 5% CO2. The final concentration of compounds in all assay is start with 10 μM, 5-fold dilution, total 8 doses were included.
(§3) Total-EGFR cellular kit(64NG1PEH) were used for evaluating EGFR degradation.
(§4) After 16 h treatment, add HTRF lysis buffer to each well; seal the plate and incubate 1 hour at room temperature on a plate shaker; Once the cells are lysed, 16 μL of cell lysate are transferred to a PE 384-well HTRF detection plate; 4 μL of pre-mixed HTRF antibodies are added to each well; cover the plate with a plate sealer, spin 1000 rpm for 1 min, incubate overnight at room temperature; read on BMG PheraStar with HTRF protocol (337 nm-665 nm-620 nm).
(§5) The inhibition (degradation) percentage of the compound was calculated by the following equation:
(§6) Inhibition percentage of Compound=100−100×(Signal−low control)/(High control−low control), wherein signal=each test compound group
(§7) High control=Cell group with added DMSO and without compound, indicating microplate readings without EGFR degradation.
(§8) Imax (Dmax) is the maximum percentage of inhibition (degradation).
(§9) The IC50 (DC50) value of a compound can be obtained by fitting the following equation
(§10) Wherein, X and Y are known values, and IC50, Hillslope, Top and Bottom are the parameters obtained by fitting with software. Y is the inhibition percentage (calculated from the equation), X is the concentration of the compound; IC50 is the concentration of the compound when the 50% inhibition is reached. The smaller the IC50 value is, the stronger the inhibitory ability of the compound is. Vice versa, the higher the IC50 value is, the weaker the ability the inhibitory ability of the compound is; Hillslope represents the slope of the fitted curve, generally around 1*; Bottom represents the minimum value of the curve obtained by data fitting, which is generally 0%±20%; Top represents the maximum value of the curve obtained by data fitting, which is generally 100%±20%. The experimental data were fitted by calculating and analyzing with Dotmatics data analysis software.

[2] = biological target: T1, EGFR L858R/T790M/C797S (H1975-clone #25) (Homo sapiens, UniProt P00533, C797S/L858R/T790M); assay: EGFR degradation, HTRF total-EGFR assay, H1975-clone #25 (LTC); type: cell-based; conditions: H1975-clone #25 L858R/T790M/C797S, 16 h treatment
T1 construct: expressed in transfected cells; host or cells: H1975 (clone #25), lentiviral transduction, endogenous EGFR knocked out
Text: as §1, §2, §3, §4, §5, §6, §7, §8, §9, §10

Cc1cc2cc(n1)-c1cnn(C)c1OC[C@H]1C[C@@H](CN3/C(=N/C2=O)Nc2ccc(N4CCC(N5CCN(c6cc(F)c([C@H]7CCC(=O)NC7=O)c(F)c6)CC5)CC4)cc23)C1 [Example 17, (R)-3-(4-(4-(1-((7^1s,7^3s,E)-1^1,2^6-dimethyl-3-oxo-5^2,5^3-dihydro-1^1H,5^1H-9-oxa-4-aza-5(2,1)-benzo[d]imidazola-2(2,4)-pyridina-1(4,5)-pyrazola-7(1,3)-cyclobutanacyclononaphane-5^6-yl)piperidin-4-yl)piperazin-1-yl)-2,6-difluorophenyl)piperidine-2,6-dione]
Degradation H1975 # 28 DTC [1]: 86.2
Degradation H1975 # 25-LTC [2]: 88.3

Cc1cc2cc(n1)-c1cnn(C)c1OC[C@H]1C[C@@H](CN3/C(=N/C2=O)Nc2ccc(N4CCN(C5CN(C6CCN(c7cnc(C8CCC(=O)NC8=O)cc7C)CC6)C5)CC4)cc23)C1 (stereo partly shown) [Example 131, 3-(5-(4-(3-(4-((7^1s,7^3s,E)-1^1,2^6-dimethyl-3-oxo-5^2,5^3-dihydro-1^1H,5^1H-9-oxa-4-aza-5(2,1)-benzo[d]imidazola-2(2,4)-pyridina-1(4,5)-pyrazola-7(1,3)-cyclobutanacyclononaphane-5^6-yl)piperazin-1-yl)azetidin-1-yl)piperidin-1-yl)-4-methylpyridin-2-yl)piperidine-2,6-dione]
Degradation H1975 # 28 DTC [1]: 68.0
Degradation H1975 # 25-LTC [2]: 84.8

Cc1cc2cc(n1)-c1cnn(C)c1OC[C@H]1C[C@@H](CN3/C(=N/C2=O)Nc2ccc(N4CCN(C5CCN(c6ccc(C7CCC(=O)NC7=O)nc6C)CC5)CC4=O)cc23)C1 (stereo partly shown) [Example 22, 3-(5-(4-(4-((7^1s,7^3s,E)-1^1,2^6-dimethyl-3-oxo-5^2,5^3-dihydro-1^1H,5^1H-9-oxa-4-aza-5(2,1)-benzo[d]imidazola-2(2,4)-pyridina-1(4,5)-pyrazola-7(1,3)-cyclobutanacyclononaphane-5^6-yl)-3-oxopiperazin-1-yl)piperidin-1-yl)-6-methylpyridin-2-yl)piperidine-2,6-dione]
Degradation H1975 # 28 DTC [1]: 89.5
Degradation H1975 # 25-LTC [2]: 91.7

(R)-3-(4-(4-(4-((7^1s,7^3s,E)-1^1,2^6-dimethyl-3-oxo-5^2,5^3-dihydro-1^1H,5^1H-9-oxa-4-aza-5(2,1)-benzo[d]imidazola-2(2,4)-pyridina-1(4,5)-pyrazola-7(1,3)-cyclobutanacyclononaphane-5^6-yl)piperazin-1-yl)piperidin-1-yl)-2,6-difluorophenyl)piperidine-2,6-dione [Example 6]
Degradation H1975 # 28 DTC [1]: 91.2
Degradation H1975 # 25-LTC [2]: 91.7

Cc1cc2cc(n1)-c1cnn(C)c1OC[C@H]1C[C@@H](CN3/C(=N/C2=O)Nc2ccc(N4CCN(C5CCN(c6cc(F)c([C@H]7CCC(=O)NC7=O)c(F)c6)CC5)[C@H](CO)C4)cc23)C1 [Example 30, (R)-3-(4-(4-((S)-4-((7^1s,7^3R,E)-1^1,2^6-dimethyl-3-oxo-5^2,5^3-dihydro-1^1H,5^1H-9-oxa-4-aza-5(2,1)-benzo[d]imidazola-2(2,4)-pyridina-1(4,5)-pyrazola-7(1,3)-cyclobutanacyclononaphane-5^6-yl)-2-(hydroxymethyl)piperazin-1-yl)piperidin-1-yl)-2,6-difluorophenyl)piperidine-2,6-dione]
Degradation H1975 # 28 DTC [1]: 84.4
Degradation H1975 # 25-LTC [2]: 90.3

Cc1cc2cc(n1)-c1cnn(C)c1OC[C@H]1C[C@@H](CN3/C(=N/C2=O)Nc2ccc(N4CCN(CC5CN(c6cc(F)c([C@H]7CCC(=O)NC7=O)c(F)c6)C5)CC4=O)cc23)C1 [Example 11, (R)-3-(4-(3-((4-((7^1s,7^3s,E)-1^1,2^6-dimethyl-3-oxo-5^2,5^3-dihydro-1^1H,5^1H-9-oxa-4-aza-5(2,1)-benzo[d]imidazola-2(2,4)-pyridina-1(4,5)-pyrazola-7(1,3)-cyclobutanacyclononaphane-5^6-yl)-3-oxopiperazin-1-yl)methyl)azetidin-1-yl)-2,6-difluorophenyl)piperidine-2,6-dione]
Degradation H1975 # 28 DTC [1]: 91.5
Degradation H1975 # 25-LTC [2]: 85.4

COC[C@@H]1CN(c2ccc3c(c2)N2C[C@H]4C[C@@H](COc5c(cnn5C)-c5cc(cc(C)n5)C(=O)/N=C/2N3)C4)CCN1C1CCN(c2cc(F)c([C@H]3CCC(=O)NC3=O)c(F)c2)CC1 [Example 20, (R)-3-(4-(4-((S)-4-((7^1s,7^3R,E)-1^1,2^6-dimethyl-3-oxo-5^2,5^3-dihydro-1^1H,5^1H-9-oxa-4-aza-5(2,1)-benzo[d]imidazola-2(2,4)-pyridina-1(4,5)-pyrazola-7(1,3)-cyclobutanacyclononaphane-5^6-yl)-2-(methoxymethyl)piperazin-1-yl)piperidin-1-yl)-2,6-difluorophenyl)piperidine-2,6-dione]
Degradation H1975 # 28 DTC [1]: 89.8
Degradation H1975 # 25-LTC [2]: 92.5

Cc1cc2cc(n1)-c1cnn(C)c1OC[C@H]1C[C@@H](CN3/C(=N/C2=O)Nc2ccc(N(C)C4CC5(C4)CN(C4CCN(c6ccc(C7CCC(=O)NC7=O)nc6C)CC4)C5)cc23)C1 (stereo partly shown) [Example 112, 3-(5-(4-(6-(((7^1s,7^3s,E)-1^1,2^6-dimethyl-3-oxo-5^2,5^3-dihydro-1^1′H,5^1H-9-oxa-4-aza-5(2,1)-benzo[d]imidazola-2(2,4)-pyridina-1(4,5)-pyrazola-7(1,3)-cyclobutanacyclononaphane-5^6-yl)(methyl)amino)-2-azaspiro[3.3]heptan-2-yl)piperidin-1-yl)-6-methylpyridin-2-yl)piperidine-2,6-dione]
Degradation H1975 # 28 DTC [1]: 75.2
Degradation H1975 # 25-LTC [2]: 85.2

Cc1cc2cc(n1)-c1cnn(C)c1OC[C@H]1C[C@@H](CN3/C(=N/C2=O)Nc2ccc(N4CCC(N5CCN(c6ccc(C7CCC(=O)NC7=O)nc6C)C[C@@H]5C)CC4)cc23)C1 (stereo partly drawn) [Example 44, 3-(5-((S)-4-(1-((7^1s,7^3R,E)-1^1,2^6-dimethyl-3-oxo-5^2,5^3-dihydro-1^1H,5^1H-9-oxa-4-aza-5(2,1)-benzo[d]imidazola-2(2,4)-pyridina-1(4,5)-pyrazola-7(1,3)-cyclobutanacyclononaphane-5^6-yl)piperidin-4-yl)-3-methylpiperazin-1-yl)-6-methylpyridin-2-yl)piperidine-2,6-dione]
Degradation H1975 # 28 DTC [1]: 80.7
Degradation H1975 # 25-LTC [2]: 91.3

Cc1cc2cc(n1)-c1cnn(C)c1OC[C@H]1C[C@@H](CN3/C(=N/C2=O)Nc2ccc(N4CCN(C5CCN(c6cc(F)c([C@H]7CCC(=O)NC7=O)c(F)c6)CC5)C[C@H]4C)cc23)C1 [Example 18, (R)-3-(4-(4-((R)-4-((7^1s,7^3S,E)-1^1,2^6-dimethyl-3-oxo-5^2,5^3-dihydro-1^1H,5^1H-9-oxa-4-aza-5(2,1)-benzo[d]imidazola-2(2,4)-pyridina-1(4,5)-pyrazola-7(1,3)-cyclobutanacyclononaphane-5^6-yl)-3-methylpiperazin-1-yl)piperidin-1-yl)-2,6-difluorophenyl)piperidine-2,6-dione]
Degradation H1975 # 28 DTC [1]: 88.4
Degradation H1975 # 25-LTC [2]: 88.6

Cc1cc2cc(n1)-c1cnn(C)c1OC[C@H]1C[C@@H](CN3/C(=N/C2=O)Nc2ccc(N4CCN(C5CN(C6CCN(c7cc(F)c([C@H]8CCC(=O)NC8=O)c(F)c7)CC6)C5)CC4)cc23)C1 [Example 137, (R)-3-(4-(4-(3-(4-((7^1s,7^3s,E)-1^1,2^6-dimethyl-3-oxo-5^2,5^3-dihydro-1^1H,5^1H-9-oxa-4-aza-5(2,1)-benzo[d]imidazola-2(2,4)-pyridina-1(4,5)-pyrazola-7(1,3)-cyclobutanacyclononaphane-5^6-yl)piperazin-1-yl)azetidin-1-yl)piperidin-1-yl)-2,6-difluorophenyl)piperidine-2,6-dione]
Degradation H1975 # 28 DTC [1]: 80.2
Degradation H1975 # 25-LTC [2]: 77.3
